Source: patent US10030016B2 (Sunesis Pharmaceuticals, Inc., priority 2009, dated 2018)
Read-outs that look alike come from different tables or passages of the source.

What was measured:
[1] = molecular target: PDK1 (Homo sapiens (Human), UniProt O15530); assay: PDK1 kinase assay (coupled PDK1/AKT/FAM-crosstide assay, IMAP fluorescence polarization); assay type: biochemical; details: inhibition of phospo-PDK1 in vitro
Method in brief: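 GST-tagged human PDK1 (aa 51-359, 0.75 nM) from insect cells activated unphosphorylated GST-AKT2 (aa 140-467–PIFtide fusion, 10 nM), which phosphorylated 100 nM FAM-crosstide; 40 μM ATP, pH 7.2 Tris/MgCl2, 30 min at 25° C. IMAP fluorescence polarization read-out; ΔmP versus compound concentration fitted with a 4-parameter curve.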

[2] = tested on: phospho-akt (Thr308) in PC-3 cells; assay: Inhibition of phospho-akt (Thr308) in PC-3 cells, MSD phospho-akt 308 ELISA kit; assay type: cell-based; details: Homo sapiens, inhibition of P308 Akt in PC-3 cells, 2 hours, no serum, MSD, read-out: EC50
Method in brief: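 PC-3 cells were seeded overnight in growth medium with 10% FBS, then exposed to compound serially diluted threefold in serum-free medium for 2 hours. Lysates were captured overnight at 4 degrees on MSD plates and phospho-Akt Thr308 was detected electrochemiluminescently, against DMSO high and 5 μM wortmannin low controls.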

PDK1, sequence (O15530 51-359): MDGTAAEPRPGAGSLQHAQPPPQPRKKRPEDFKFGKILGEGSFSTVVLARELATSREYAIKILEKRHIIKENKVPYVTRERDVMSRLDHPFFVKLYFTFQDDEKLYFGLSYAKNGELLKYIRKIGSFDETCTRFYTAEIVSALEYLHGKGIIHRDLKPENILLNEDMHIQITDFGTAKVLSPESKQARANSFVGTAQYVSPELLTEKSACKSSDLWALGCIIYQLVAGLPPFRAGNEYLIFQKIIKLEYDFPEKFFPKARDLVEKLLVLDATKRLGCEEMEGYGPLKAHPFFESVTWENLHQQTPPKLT

With CCC(=O)Nc1cnc(NCc2ccc(-c3ccc4ncnc(N)c4c3)s2)c(C(=O)NCc2ccc(F)c(F)c2)c1 [Example 8.5.2, 2-({[5-(4-aminoquinazolin-6-yl)thiophen-2-yl]methyl}amino)-N-(3,4-difluorobenzyl)-5-(propanoylamino)pyridine-3-carboxamide] the IC50 [1] was less than 100 nM and the EC50 [2] was 1000 to 10000 nM.

CC(C)C(=O)Nc1cnc(NCc2ccc(-c3ccc4ncnc(N)c4c3)s2)c(C(=O)NCc2ccc(F)c(F)c2)c1 [Example 8.5.3, 2-({[5-(4-aminoquinazolin-6-yl)thiophen-2-yl]methyl}amino)-N-(3,4-difluorobenzyl)-5-[(2-methylpropanoyl)amino] pyridine-3-carboxamide] was tested, and the IC50 [1] was 100 to 1000 nM and the EC50 [2] was 1000 to 10000 nM.

Nc1ncnc2ccc(-c3ccc(CNc4ncc(NC(=O)Cc5ccccc5)cc4C(=O)NCc4ccc(F)c(F)c4)s3)cc12 [Example 8.5.4, 2-({[5-(4-aminoquinazolin-6-yl)thiophen-2-yl]methyl}amino)-N-(3,4-difluorobenzyl)-5-[(phenylacetyl)amino] pyridine-3-carboxamide] showed an IC50 [1] of 1000 to 5000 nM and an EC50 [2] of 1000 to 10000 nM.

For Nc1ncnc2ccc(-c3ccc(CNc4ncc(NC(=O)C5CCCC5)cc4C(=O)NCc4ccc(F)c(F)c4)s3)cc12 [Example 8.5.5, 2-({[5-(4-aminoquinazolin-6-yl)thiophen-2-yl]methyl}amino)-5-[(cyclopentylcarbonyl)amino]-N-(3,4-difluorobenzyl) pyridine-3-carboxamide], the IC50 [1] was 100 to 1000 nM and the EC50 ([2]; PC-3, 2 h) was 1000 to 10000 nM.

Molecule Nc1ncnc2ccc(-c3ccc(CNc4ncc(NC(=O)C(F)(F)F)cc4C(=O)NCc4ccc(F)c(F)c4)s3)cc12 [Example 8.5.6, 2-({[5-(4-aminoquinazolin-6-yl)thiophen-2-yl]methyl}amino)-N-(3,4-difluorobenzyl)-5-[(trifluoroacetyl)amino] pyridine-3-carboxamide] has an IC50 [1] of 100 to 1000 nM and an EC50 [2] of 1000 to 10000 nM.

Work on Nc1ncnc2ccc(-c3ccc(CNc4ncc(NC(=O)c5ccccc5)cc4C(=O)NCc4ccc(F)c(F)c4)s3)cc12 [Example 8.5.7, 2-({[5-(4-aminoquinazolin-6-yl)thiophen-2-yl]methyl}amino)-N-(3,4-difluorobenzyl)-5-[(phenylcarbonyl)amino] pyridine-3-carboxamide] yielded an IC50 [1] of 100 to 1000 nM and an EC50 [2] greater than 10000 nM.

CN(C)CC(=O)Nc1cnc(NCc2ccc(-c3ccc4ncnc(N)c4c3)s2)c(C(=O)NCc2ccc(F)c(F)c2)c1 [Example 8.5.8, 2-({[5-(4-aminoquinazolin-6-yl)thiophen-2-yl]methyl}amino)-N-(3,4-difluorobenzyl)-5-[(N,N-dimethylglycyl)amino] pyridine-3-carboxamide] showed an IC50 [1] of 100 to 1000 nM and an EC50 [2] of 1000 to 10000 nM.

CCS(=O)(=O)Nc1cnc(NCc2ccc(-c3ccc4ncnc(N)c4c3)s2)c(C(=O)NCc2ccc(F)c(F)c2)c1 [Example 8.6.2, 2-({[5-(4-aminoquinazolin-6-yl)thiophen-2-yl]methyl}amino)-N-(3,4-difluorobenzyl)-5-[(ethylsulfonyl)amino] pyridine-3-carboxamide] showed an IC50 [1] of 100 to 1000 nM and an EC50 ([2]; PC-3, 2 h) of less than 1000 nM.

For Nc1ncnc2ccc(-c3ccc(CNc4ncc(NS(=O)(=O)C(F)(F)F)cc4C(=O)NCc4ccc(F)c(F)c4)s3)cc12 [Example 8.6.3], the IC50 [1] was 100 to 1000 nM and the EC50 [2] was 1000 to 10000 nM.

In the case of CCCS(=O)(=O)Nc1cnc(NCc2ccc(-c3ccc4ncnc(N)c4c3)s2)c(C(=O)NCc2ccc(F)c(F)c2)c1 [Example 8.6.4], the IC50 [1] is reported as 1000 to 5000 nM and the EC50 [2] is reported as 1000 to 10000 nM.

For CN(C)/C=N/c1cnc(NCc2ccc(-c3ccc4ncnc(N)c4c3)s2)c(C(=O)NCc2ccc(F)c(F)c2)c1 [Example 8.6.5, 2-({[5-(4-aminoquinazolin-6-yl)thiophen-2-yl]methyl}amino)-N-(3,4-difluorobenzyl)-5-{[(E)-(dimethylamino)methylidene]amino}pyridine-3-carboxamide], the IC50 [1] was 100 to 1000 nM and the EC50 ([2]; PC-3, 2 h) was 1000 to 10000 nM.

Nc1ncnc2ccc(-c3ccc(CNc4ncc(NS(=O)(=O)Cc5ccccc5)cc4C(=O)NCc4ccc(F)c(F)c4)s3)cc12 [Example 8.6.6, 2-({[5-(4-aminoquinazolin-6-yl)thiophen-2-yl]methyl}amino)-5-[(benzylsulfonyl)amino]-N-(3,4-difluorobenzyl) pyridine-3-carboxamide] gave an IC50 [1] of 1000 to 5000 nM and an EC50 [2] of 1000 to 10000 nM.

For Nc1ncnc2ccc(-c3ccc(CNc4ncc(S(=O)(=O)NCc5ccccc5)cc4C(=O)NCc4ccc(F)c(F)c4)s3)cc12 [Example 8.6.7, 2-(((5-(4-aminoquinazolin-6-yl)thiophen-2-yl)methyl)amino)-5-(N-benzylsulfamoyl)-N-(3,4-difluorobenzyl) nicotinamide], the IC50 [1] was 100 to 1000 nM and the EC50 [2] was greater than 10000 nM.

Molecule Nc1ncnc2ccc(-c3ccc(CNc4ncc(S(=O)(=O)N5CCCCC5)cc4C(=O)NCc4ccc(F)c(F)c4)s3)cc12 [Example 8.6.8, 2-(((5-(4-aminoquinazolin-6-yl)thiophen-2-yl)methyl)amino)-N-(3,4-difluorobenzyl)-5-(piperidin-1-ylsulfonyl) nicotinamide] has an IC50 [1] of 100 to 1000 nM and an EC50 [2] greater than 10000 nM.

With CCCNS(=O)(=O)c1cnc(NCc2ccc(-c3ccc4ncnc(N)c4c3)s2)c(C(=O)NCc2ccc(F)c(F)c2)c1 [Example 8.6.9, 2-(((5-(4-aminoquinazolin-6-yl)thiophen-2-yl)methyl)amino)-N-(3,4-difluorobenzyl)-5-(N-propylsulfamoyl) nicotinamide] the IC50 [1] was 100 to 1000 nM and the EC50 [2] was 1000 to 10000 nM.

CN1CCN(S(=O)(=O)c2cnc(NCc3ccc(-c4ccc5ncnc(N)c5c4)s3)c(C(=O)NCc3ccc(F)c(F)c3)c2)CC1 [Example 8.6.10, 2-(((5-(4-aminoquinazolin-6-yl)thiophen-2-yl)methyl)amino)-N-(3,4-difluorobenzyl)-5-(4-methylpiperazin-1-ylsulfonyl)nicotinamide] was tested, and the IC50 [1] was 100 to 1000 nM and the EC50 ([2]; PC-3, 2 h) was 1000 to 10000 nM.

CCCNS(=O)(=O)c1cnc(NCc2ccc(-c3ccc4ncnc(N)c4c3)s2)c(C(=O)NC)c1 [Example 8.6.11, 2-(((5-(4-aminoquinazolin-6-yl)thiophen-2-yl)methyl)amino)-N-methyl-5-(N-propylsulfamoyl) nicotinamide] showed an IC50 [1] greater than 5000 nM and an EC50 [2] greater than 10000 nM.

CNC(=O)c1cc(S(=O)(=O)N2CCN(C)CC2)cnc1NCc1ccc(-c2ccc3ncnc(N)c3c2)s1 [Example 8.6.12, 2-(((5-(4-aminoquinazolin-6-yl)thiophen-2-yl)methyl)amino)-N-methyl-5-(4-methylpiperazin-1-ylsulfonyl)nicotinamide] was tested, and the IC50 [1] was greater than 5000 nM and the EC50 [2] was greater than 10000 nM.

For NCCNS(=O)(=O)c1cnc(NCc2ccc(-c3ccc4ncnc(N)c4c3)s2)c(C(=O)NCc2ccc(F)c(F)c2)c1 [Example 8.6.13, 5-(N-(2-aminoethyl)sulfamoyl)-2-(((5-(4-aminoquinazolin-6-yl)thiophen-2-yl)methyl)amino)-N-(3,4-difluorobenzyl) nicotinamide], the IC50 [1] was 1000 to 5000 nM and the EC50 [2] was greater than 10000 nM.

CN(C)CCCNS(=O)(=O)c1cnc(NCc2ccc(-c3ccc4ncnc(N)c4c3)s2)c(C(=O)NCc2ccc(F)c(F)c2)c1 [Example 8.6.14, 2-(((5-(4-aminoquinazolin-6-yl)thiophen-2-yl)methyl)amino)-N-(3,4-difluorobenzyl)-5-(N-(3-(dimethylamino)propyl)sulfamoyl) nicotinamide] was tested, and the IC50 [1] was less than 100 nM and the EC50 [2] was greater than 10000 nM.

CNC(=O)c1cc(S(=O)(=O)NCc2ccccc2)cnc1NCc1ccc(-c2ccc3ncnc(N)c3c2)s1 [Example 8.6.15, 2-(((5-(4-aminoquinazolin-6-yl)thiophen-2-yl)methyl)amino)-5-(N-benzylsulfamoyl)-N-methylnicotinamide] was tested, and the IC50 [1] was less than 100 nM and the EC50 [2] was greater than 10000 nM.

CCNS(=O)(=O)c1cnc(NCc2ccc(-c3ccc4ncnc(N)c4c3)s2)c(C(=O)NC)c1 [Example 8.6.16, 2-(((5-(4-aminoquinazolin-6-yl)thiophen-2-yl)methyl)amino)-5-(N-ethylsulfamoyl)-N-methylnicotinamide] was tested, and the IC50 [1] was greater than 5000 nM and the EC50 [2] was greater than 10000 nM.

With CCC(C)NS(=O)(=O)c1cnc(NCc2ccc(-c3ccc4ncnc(N)c4c3)s2)c(C(=O)NC)c1 (stereo not drawn) [Example 8.6.17, 2-(((5-(4-aminoquinazolin-6-yl)thiophen-2-yl)methyl)amino)-5-(N-sec-butylsulfamoyl)-N-methylnicotinamide] the IC50 [1] was greater than 5000 nM and the EC50 [2] was 1000 to 10000 nM.

For CNC(=O)c1cc(S(=O)(=O)NC(C)(C)C)cnc1NCc1ccc(-c2ccc3ncnc(N)c3c2)s1 [Example 8.6.18, 2-(((5-(4-aminoquinazolin-6-yl)thiophen-2-yl)methyl)amino)-5-(N-t-butylsulfamoyl)-N-methylnicotinamide], the IC50 [1] was greater than 5000 nM and the EC50 [2] was 1000 to 10000 nM.

Molecule CNC(=O)c1cc(S(=O)(=O)N2CCCCC2)cnc1NCc1ccc(-c2ccc3ncnc(N)c3c2)s1 [Example 8.6.19] has an IC50 [1] greater than 5000 nM and an EC50 [2] greater than 10000 nM.

Work on CC(C)(C)NS(=O)(=O)c1cnc(NCc2ccc(-c3ccc4ncnc(N)c4c3)s2)c(C(=O)NCc2ccc(F)c(F)c2)c1 [Example 8.6.20, 2-(((5-(4-aminoquinazolin-6-yl)thiophen-2-yl)methyl)amino)-5-(N-tert-butylsulfamoyl)-N-(3,4-difluorobenzyl)nicotinamide] yielded an IC50 [1] of 100 to 1000 nM and an EC50 [2] greater than 10000 nM.

Nc1ncnc2ccc(-c3ccc(CNc4ncc(S(N)(=O)=O)cc4C(=O)NCc4ccc(F)c(F)c4)s3)cc12 [Example 8.7.2, 2-({[5-(4-aminoquinazolin-6-yl)thiophen-2-yl]methyl}amino)-N-(3,4-difluorobenzyl)-5-sulfamoylpyridine-3-carboxamide] showed an IC50 [1] of less than 100 nM and an EC50 [2] of 1000 to 10000 nM.
